Results published in US6358885B1, “Substituted phenylheterocyclic herbicides” (Mississippi State University, priority 1992, dated 2002).

Legend:
Test in all cases: Test B preemergence/postemergence greenhouse plant response rating 0 to 10
Settings in all cases: 0 to 10 scale
crabgrass = assay type: in vivo, Digitaria spp.
Source text: (§1) Seeds of barley (Hordeum vulgare), barnyardgrass (Echinochloa crus-galli), bedstraw (Galium aparine), blackgrass (Alopecurus myosuroides), […] (Bromus secalinus), chickweed (Stellaria media), cocklebur (Xanthium pensylvanicum), corn (Zea mays), cotton (Gossypium hirsutum), crabgrass (Digitaria spp.), giant foxtail (Setaria faberii), lambsquarters (Chenopodium album), morningglory (Ipomoea hederacea), rape (Brassica napus), rice (Oryza sativa), sorghum (Sorghum bicolor), soybean (Glycine max), sugar beet (Beta vulgaris), velvetleaf (Abutilon theophrasti), wheat (Triticum aestivum), wild buckwheat (Polygonum convolvulus), and wild oat (Avena fatua) and purple nutsedge. (Cyperus rotundus) tubers were planted and treated preemergence with test chemicals dissolved in a non-phytotoxic solvent. At the same time, these crop and weed species were also treated with postemergence applications of test chemicals. Plants ranged in height from two to eighteen cm (one to four leaf stage) for postemergence treatments. Treated plants and controls were maintained in a greenhouse for twelve to sixteen days, after which all species were compared to controls and visually evaluated. […] A dash (-) response means no test result.

sugar beet = assay type: in vivo, Beta vulgaris
Procedure, shortened: (§2)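 Test chemicals, dissolved in a non-phytotoxic solvent, were applied to soil at planting and, at the same time, over foliage of seedlings at the one to four leaf stage.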

wild buckwheat = assay type: in vivo, Polygonum convolvulus
Procedure, shortened: as §2

barnyardgrass = assay type: in vivo, Echinochloa crus-galli
Source text: as §1

wild oat = assay type: in vivo, Avena fatua
Procedure, shortened: as §2

rape = assay type: in vivo, Brassica napus
Procedure, shortened: as §2

cheatgrass = assay type: in vivo, Bromus secalinus
Procedure, shortened: as §2

purple nutsedge = assay type: in vivo, Cyperus rotundus
Source text: as §1

cotton = assay type: in vivo, Gossypium hirsutum
Source text: as §1

bedstraw = assay type: in vivo, Galium aparine
Procedure, shortened: as §2

barley = assay type: in vivo, Hordeum vulgare
Procedure, shortened: as §2

wheat = assay type: in vivo, Triticum aestivum
Procedure, shortened: as §2

soybean = assay type: in vivo, Glycine max
Source text: as §1

velvetleaf = assay type: in vivo, Abutilon theophrasti
Source text: as §1

rice = assay type: in vivo, Oryza sativa
Source text: as §1

blackgrass = assay type: in vivo, Alopecurus myosuroides
Procedure, shortened: as §2

chickweed = assay type: in vivo, Stellaria media
Procedure, shortened: as §2

giant foxtail = assay type: in vivo, Setaria faberii
Source text: as §1

corn = assay type: in vivo, Zea mays
Source text: as §1

cocklebur = assay type: in vivo, Xanthium pensylvanicum
Source text: as §1

sorghum = assay type: in vivo, Sorghum bicolor
Source text: as §1

morningglory = assay type: in vivo, Ipomoea hederacea
Source text: as §1

lambsquarters = assay type: in vivo, Chenopodium album
Procedure, shortened: as §2

C=CCOc1cc(-c2nn3c(c2Br)CCCC3)c(F)cc1Cl [Compound 37]
Plant response rating, Crabgrass (crabgrass; POSTEMERGENCE, Rate 50 g/ha): 4 | Plant response rating, Crabgrass (crabgrass; POSTEMERGENCE, Rate 200 g/ha): 5 | Plant response rating, Crabgrass (crabgrass; PREEMERGENCE, Rate 50 g/ha): 0 | Plant response rating, Crabgrass (crabgrass; Rate 200 g/ha, PREEMERGENCE): 7 | Plant response rating, Sugar beet (sugar beet; POSTEMERGENCE, Rate 50 g/ha): 10 | Plant response rating, Sugar beet (sugar beet; PREEMERGENCE, Rate 50 g/ha): 9 | Plant response rating, Sugar beet (sugar beet; Rate 200 g/ha, POSTEMERGENCE): 10 | Plant response rating, Sugar beet (sugar beet; Rate 200 g/ha, PREEMERGENCE): 9 | Plant response rating, Wild buckwheat (wild buckwheat; POSTEMERGENCE, Rate 50 g/ha): 9 | Plant response rating, Wild buckwheat (wild buckwheat; PREEMERGENCE, Rate 50 g/ha): 9 | Plant response rating, Wild buckwheat (wild buckwheat; Rate 200 g/ha, POSTEMERGENCE): 10 | Plant response rating, Wild buckwheat (wild buckwheat; Rate 200 g/ha, PREEMERGENCE): 10 | Plant response rating, Barnyardgrass (barnyardgrass; POSTEMERGENCE, Rate 50 g/ha): 5 | Plant response rating, Barnyardgrass (barnyardgrass; POSTEMERGENCE, Rate 200 g/ha): 7 | Plant response rating, Barnyardgrass (barnyardgrass; PREEMERGENCE, Rate 50 g/ha): 0 | Plant response rating, Barnyardgrass (barnyardgrass; Rate 200 g/ha, PREEMERGENCE): 4 | Plant response rating, Wild oat (wild oat; POSTEMERGENCE, Rate 50 g/ha): 4 | Plant response rating, Wild oat (wild oat; PREEMERGENCE, Rate 50 g/ha): 2 | Plant response rating, Wild oat (wild oat; Rate 200 g/ha, POSTEMERGENCE): 6 | Plant response rating, Rape (rape; POSTEMERGENCE, Rate 50 g/ha): 9 | Plant response rating, Rape (rape; Rate 200 g/ha, POSTEMERGENCE): 10 | Plant response rating, Rape (rape; Rate 200 g/ha, PREEMERGENCE): 6 | Plant response rating, Cheatgrass (cheatgrass; POSTEMERGENCE, Rate 50 g/ha): 4 | Plant response rating, Cheatgrass (cheatgrass; POSTEMERGENCE, Rate 200 g/ha): 7 | Plant response rating, Cheatgrass (cheatgrass; PREEMERGENCE, Rate 50 g/ha): 5 | Plant response rating, Cheatgrass (cheatgrass; Rate 200 g/ha, PREEMERGENCE): 6 | Plant response rating, Nutsedge (purple nutsedge; POSTEMERGENCE, Rate 50 g/ha): 2 | Plant response rating, Nutsedge (purple nutsedge; PREEMERGENCE, Rate 50 g/ha): 0 | Plant response rating, Nutsedge (purple nutsedge; Rate 200 g/ha, POSTEMERGENCE): 4 | Plant response rating, Nutsedge (purple nutsedge; Rate 200 g/ha, PREEMERGENCE): 0 | Plant response rating, Cotton (cotton; POSTEMERGENCE, Rate 50 g/ha): 10 | Plant response rating, Cotton (cotton; POSTEMERGENCE, Rate 200 g/ha): 10 | Plant response rating, Cotton (cotton; PREEMERGENCE, Rate 50 g/ha): 0 | Plant response rating, Cotton (cotton; Rate 200 g/ha, PREEMERGENCE): 7 | Plant response rating, Bedstraw (bedstraw; POSTEMERGENCE, Rate 50 g/ha): 7 | Plant response rating, Bedstraw (bedstraw; POSTEMERGENCE, Rate 200 g/ha): 10 | Plant response rating, Bedstraw (bedstraw; Rate 200 g/ha, PREEMERGENCE): 8 | Plant response rating, Barley (barley; POSTEMERGENCE, Rate 50 g/ha): 4 | Plant response rating, Barley (barley; POSTEMERGENCE, Rate 200 g/ha): 6 | Plant response rating, Barley (barley; PREEMERGENCE, Rate 50 g/ha): 0 | Plant response rating, Barley (barley; Rate 200 g/ha, PREEMERGENCE): 0 | Plant response rating, Wheat (wheat; POSTEMERGENCE, Rate 50 g/ha): 4 | Plant response rating, Wheat (wheat; PREEMERGENCE, Rate 50 g/ha): 0 | Plant response rating, Wheat (wheat; Rate 200 g/ha, POSTEMERGENCE): 5 | Plant response rating, Wheat (wheat; Rate 200 g/ha, PREEMERGENCE): 3 | Plant response rating, Soybean (soybean; POSTEMERGENCE, Rate 50 g/ha): 5 | Plant response rating, Soybean (soybean; PREEMERGENCE, Rate 50 g/ha): 0 | Plant response rating, Soybean (soybean; Rate 200 g/ha, POSTEMERGENCE): 6 | Plant response rating, Soybean (soybean; Rate 200 g/ha, PREEMERGENCE): 4 | Plant response rating, Velvetleaf (velvetleaf; POSTEMERGENCE, Rate 50 g/ha): 10 | Plant response rating, Velvetleaf (velvetleaf; PREEMERGENCE, Rate 50 g/ha): 1 | Plant response rating, Velvetleaf (velvetleaf; Rate 200 g/ha, POSTEMERGENCE): 10 | Plant response rating, Velvetleaf (velvetleaf; Rate 200 g/ha, PREEMERGENCE): 9 | Plant response rating, Rice (rice; POSTEMERGENCE, Rate 50 g/ha): 5 | Plant response rating, Rice (rice; PREEMERGENCE, Rate 50 g/ha): 0 | Plant response rating, Rice (rice; Rate 200 g/ha, POSTEMERGENCE): 6 | Plant response rating, Rice (rice; Rate 200 g/ha, PREEMERGENCE): 0 | Plant response rating, Blackgrass (blackgrass; POSTEMERGENCE, Rate 50 g/ha): 4 | Plant response rating, Blackgrass (blackgrass; POSTEMERGENCE, Rate 200 g/ha): 7 | Plant response rating, Blackgrass (blackgrass; PREEMERGENCE, Rate 50 g/ha): 0 | Plant response rating, Blackgrass (blackgrass; Rate 200 g/ha, PREEMERGENCE): 6 | Plant response rating, Chickweed (chickweed; POSTEMERGENCE, Rate 50 g/ha): 5 | Plant response rating, Chickweed (chickweed; POSTEMERGENCE, Rate 200 g/ha): 10 | Plant response rating, Chickweed (chickweed; Rate 200 g/ha, PREEMERGENCE): 9 | Plant response rating, Giant foxtail (giant foxtail; POSTEMERGENCE, Rate 50 g/ha): 5 | Plant response rating, Giant foxtail (giant foxtail; PREEMERGENCE, Rate 50 g/ha): 2 | Plant response rating, Giant foxtail (giant foxtail; Rate 200 g/ha, POSTEMERGENCE): 6 | Plant response rating, Giant foxtail (giant foxtail; Rate 200 g/ha, PREEMERGENCE): 5 | Plant response rating, Corn (corn; POSTEMERGENCE, Rate 50 g/ha): 6 | Plant response rating, Corn (corn; POSTEMERGENCE, Rate 200 g/ha): 8 | Plant response rating, Corn (corn; PREEMERGENCE, Rate 50 g/ha): 0 | Plant response rating, Corn (corn; Rate 200 g/ha, PREEMERGENCE): 3 | Plant response rating, Cocklebur (cocklebur; POSTEMERGENCE, Rate 50 g/ha): 7 | Plant response rating, Cocklebur (cocklebur; POSTEMERGENCE, Rate 200 g/ha): 10 | Plant response rating, Cocklebur (cocklebur; PREEMERGENCE, Rate 50 g/ha): 0 | Plant response rating, Cocklebur (cocklebur; Rate 200 g/ha, PREEMERGENCE): 0 | Plant response rating, Sorghum (sorghum; POSTEMERGENCE, Rate 50 g/ha): 5 | Plant response rating, Sorghum (sorghum; PREEMERGENCE, Rate 50 g/ha): 0 | Plant response rating, Sorghum (sorghum; Rate 200 g/ha, POSTEMERGENCE): 6 | Plant response rating, Sorghum (sorghum; Rate 200 g/ha, PREEMERGENCE): 1 | Plant response rating, Morningglory (morningglory; POSTEMERGENCE, Rate 50 g/ha): 7 | Plant response rating, Morningglory (morningglory; PREEMERGENCE, Rate 50 g/ha): 0 | Plant response rating, Morningglory (morningglory; Rate 200 g/ha, POSTEMERGENCE): 8 | Plant response rating, Morningglory (morningglory; Rate 200 g/ha, PREEMERGENCE): 1 | Plant response rating, Lambsquarter (lambsquarters; POSTEMERGENCE, Rate 50 g/ha): 9 | Plant response rating, Lambsquarter (lambsquarters; PREEMERGENCE, Rate 50 g/ha): 10 | Plant response rating, Lambsquarter (lambsquarters; Rate 200 g/ha, POSTEMERGENCE): 10 | Plant response rating, Lambsquarter (lambsquarters; Rate 200 g/ha, PREEMERGENCE): 10
